# Assay results from US8008487B2, “Substituted thieno[2,3-D]pyrimidines as fungicides” (priority 2004, dated 2011).
# Key:
# Type in all cases: in vivo
# [1] = test system: Puccinia recondita tritici; assay: Leaf Rust of Wheat (PUCCRT), whole-plant fungicide test; settings: one-day protectant test; for PUCCRT percent control of disease / pest or weed control at 200 ppm: 200 ppm on foliage; for pest or weed control at 200 ppm / pest or weed control at 100 ppm: Puccinia recondita, 24 h, read-out: PUCCRT percent control of disease; for pest or weed control at 200 ppm: foliar; for pest or weed control at 100 ppm: 100 ppm (footnote a)
# Colletotricum lagenarium = assay: Cucumber Anthracnose (COLLLA), whole-plant fungicide test; settings: 200 ppm on foliage, one-day protectant test; for pest or weed control at 200 ppm: Cucumis sativus, foliar, 24 h, read-out: COLLLA percent control of disease
# Phytophthora infestans = assay: whole plant or invertebrate; settings: for PHYTIN percent control of disease: 200 ppm on foliage, tomato, one-day protectant test; for pest or weed control at 200 ppm: Phytophthora infestans, in Solanum lycopersicum, foliar, 24 h, read-out: PHYTIN percent control of disease, 200 ppm on foliage, tomato, one-day protectant test
# Magnaporthe grisea = assay: whole plant or invertebrate; settings: for PYRIOR percent control of disease: 200 ppm on foliage, rice, one-day protectant test; for pest or weed control at 200 ppm: Pyricularia oryzae, in Oryza sativa, foliar, 24 h, read-out: PYRIOR percent control of disease, 200 ppm on foliage, rice, one-day protectant test
# Erysiphe cichoracaerum = assay: Cucumber Powdery Mildew (ERYSCI), whole-plant fungicide test; settings: 200 ppm on foliage, one-day protectant test; for pest or weed control at 200 ppm: Erysiphe, foliar, 24 h, read-out: ERYSCI percent control of disease
# Leptosphaeria nodorum = assay: Glume Blotch of Wheat (LEPTNO), whole-plant fungicide test; settings: one-day protectant test; for LEPTNO percent control of disease / pest or weed control at 200 ppm: 200 ppm on foliage; for pest or weed control at 200 ppm / pest or weed control at 100 ppm: Parastagonospora nodorum, 24 h, read-out: LEPTNO percent control of disease; for pest or weed control at 200 ppm: foliar; for pest or weed control at 100 ppm: 100 ppm (footnote a)
SMILES,PUCCRT percent control of disease [1],pest or weed control at 200 ppm (Colletotricum lagenarium) [%],PHYTIN percent control of disease (Phytophthora infestans),PYRIOR percent control of disease (Magnaporthe grisea),ERYSCI percent control of disease (Erysiphe cichoracaerum),LEPTNO percent control of disease (Leptosphaeria nodorum),pest or weed control at 200 ppm [1] [%],pest or weed control at 200 ppm (Phytophthora infestans) [%],pest or weed control at 200 ppm (Magnaporthe grisea) [%],pest or weed control at 200 ppm (Erysiphe cichoracaerum) [%],pest or weed control at 200 ppm (Leptosphaeria nodorum) [%],pest or weed control at 100 ppm [1] [%],COLLLA percent control of disease (Colletotricum lagenarium),pest or weed control at 100 ppm (Leptosphaeria nodorum) [%]
CC(C)c1ccc(C(C)Nc2ncnc3scc(Cl)c23)cc1 (stereo not drawn) [Compound 24],* (* is 0-49 percent control of disease),0 to 49,* (* is 0-49 percent control of disease),** (** is 50-79 percent control of disease),* (* is 0-49 percent control of disease),* (* is 0-49 percent control of disease),,,,,,,,
COc1ccc(OCC2CC2C(C)Nc2ncnc3scc(Cl)c23)cc1 (stereo not drawn) [Compound 86],,80 to 100,,,,,80 to 100,0 to 49,80 to 100,80 to 100,50 to 79,,,
CC(Nc1ncnc2scc(Cl)c12)c1cnccn1 (stereo not drawn) [Compound 23],,0 to 49,,,,,80 to 100,0 to 49,50 to 79,80 to 100,0 to 49,,,
CC(Nc1ncnc2scc(Br)c12)c1cnc(OCC(F)(F)F)nc1 (stereo not drawn) [Compound 67],,0 to 49,,,,,80 to 100,0 to 49,0 to 49,0 to 49,0 to 49,,,
COCC1CC1C(C)Nc1ncnc2scc(Cl)c12 (stereo not drawn) [Compound 81],,,,,,,,,,,,80 to 100,,
CC(C)c1ccc(C(C)Nc2ncnc3scc(Cl)c23)cc1 (stereo not drawn) [Compound 25],*** (*** is 80-100 percent control of disease),,*** (*** is 80-100 percent control of disease),*** (*** is 80-100 percent control of disease),*** (*** is 80-100 percent control of disease),*** (*** is 80-100 percent control of disease),,,,,,,* (* is 0-49 percent control of disease),
CC(C)(C)OC(=O)c1ccc(CNc2ncnc3scc(Cl)c23)cc1 [Compound 4a],,0 to 49,,,,,0 to 49,0 to 49,50 to 79,0 to 49,0 to 49,,,
Clc1csc2ncnc(N3CCCCC3c3ccccc3)c12 (stereo not drawn) [Compound 93],,0 to 49,,,,,0 to 49,0 to 49,80 to 100,0 to 49,0 to 49,,,
CC(Nc1ncnc2scc(Cl)c12)c1ccc(OCC(F)(F)F)nc1 (stereo not drawn) [Compound 84],,,,,,,,,,,,80 to 100,,
"COc1ccc(C(C)Nc2ncnc3scc(SC)c23)cc1 (stereo not drawn) [Compound 88, 5-Methylthio-N-[1-(4-methoxyphenyl)ethyl]thieno[2,3-d]pyrimidin-4-amine]",,0 to 49,,,,,80 to 100,0 to 49,80 to 100,0 to 49,0 to 49,,,
COc1ccc(OCCNc2ncnc3scc(Cl)c23)cc1 [Compound 64],,0 to 49,,,,,80 to 100,0 to 49,80 to 100,0 to 49,0 to 49,,,
COc1cc(F)ccc1C(C)Nc1ncnc2scc(Cl)c12 (stereo not drawn) [Compound 83],,0 to 49,,,,,80 to 100,0 to 49,,80 to 100,0 to 49,,,
CC(Nc1ncnc2scc(Cl)c12)c1cnc(OCC(F)(F)F)s1 (stereo not drawn) [Compound 90],,0 to 49,,,,,80 to 100,0 to 49,80 to 100,80 to 100,50 to 79,,,
Clc1csc2ncnc(NCCc3ccc4ccccc4c3)c12 [Compound 2a],,0 to 49,,,,,80 to 100,80 to 100,80 to 100,80 to 100,0 to 49,,,
CC(Nc1ncnc2scc(Cl)c12)c1ccc2oc(CC(C)(C)C)nc2c1 (stereo not drawn) [Compound 1a],,,,,,,,,,,,80 to 100,,50 to 79
COc1ccc(C(C)Nc2ncnc3scc(Cl)c23)cc1 (stereo not drawn) [Compound 27],,0 to 49,,,,,80 to 100,0 to 49,80 to 100,80 to 100,50 to 79,,,

SMILES,PUCCRT percent control of disease [1],pest or weed control at 200 ppm (Colletotricum lagenarium) [%],PHYTIN percent control of disease (Phytophthora infestans),PYRIOR percent control of disease (Magnaporthe grisea),ERYSCI percent control of disease (Erysiphe cichoracaerum),LEPTNO percent control of disease (Leptosphaeria nodorum),pest or weed control at 200 ppm [1] [%],pest or weed control at 200 ppm (Phytophthora infestans) [%],pest or weed control at 200 ppm (Magnaporthe grisea) [%],pest or weed control at 200 ppm (Erysiphe cichoracaerum) [%],pest or weed control at 200 ppm (Leptosphaeria nodorum) [%],pest or weed control at 100 ppm [1] [%],COLLLA percent control of disease (Colletotricum lagenarium),pest or weed control at 100 ppm (Leptosphaeria nodorum) [%]
COc1ccc(COCC2CC2C(C)Nc2ncnc3scc(Cl)c23)cc1 (stereo not drawn) [Compound 85],,0 to 49,,,,,80 to 100,80 to 100,,80 to 100,0 to 49,,,
Clc1csc2ncnc(N3CCOCC3c3ccccc3)c12 (stereo not drawn) [Compound 92],,0 to 49,,,,,0 to 49,0 to 49,80 to 100,0 to 49,0 to 49,,,
"COc1ccc(C(C)Nc2ncnc3scc(S(C)(=O)=O)c23)cc1 (stereo not drawn) [Compound 89, 5-Methanesulfonyl-N-[1-(4-methoxyphenyl)ethyl]thieno[2,3-d]pyrimidin-4-amine]",,0 to 49,,,,,0 to 49,0 to 49,50 to 79,0 to 49,0 to 49,,,
CC(Nc1ncnc2scc(Cl)c12)c1ccc(OCC(F)(F)F)cc1 (stereo not drawn) [Compound 73],,80 to 100,,,,,80 to 100,0 to 49,80 to 100,80 to 100,50 to 79,,,
CC(Nc1ncnc2scc(Cl)c12)c1ccc(OCC(F)F)nc1 (stereo not drawn) [Compound 74],,80 to 100,,,,,80 to 100,0 to 49,80 to 100,80 to 100,80 to 100,,,
CCC(Nc1ncnc2scc(Cl)c12)c1ccc(OC)nc1 (stereo not drawn) [Compound 79],,0 to 49,,,,,80 to 100,0 to 49,80 to 100,0 to 49,0 to 49,,,
CC(Nc1ncnc2scc(Cl)c12)c1cccc2ccccc12 (stereo not drawn) [Compound 3a],,0 to 49,,,,,80 to 100,0 to 49,80 to 100,80 to 100,0 to 49,,,
Clc1csc2ncnc(NCCc3ccc(N4CCOCC4)cc3)c12 [Compound 8a],,,,,,,,,,,,80 to 100,,50 to 79
CC(Nc1ncnc2scc(Cl)c12)C1CC1COCC(F)(F)F (stereo not drawn) [Compound 87],,0 to 49,,,,,80 to 100,0 to 49,80 to 100,80 to 100,0 to 49,,,
"COc1ccc(C(C)Nc2ncnc3scc(I)c23)cc1 (stereo not drawn) [Compound 70, (5-Iodothieno[2,3-d]pyrimidin-4-yl)-[1-(4-methoxyphenyl)ethyl]amine]",,0 to 49,,,,,0 to 49,0 to 49,50 to 79,0 to 49,0 to 49,,,
CC(Nc1ncnc2scc(Cl)c12)c1ccc(C(F)(F)F)cc1 (stereo not drawn) [Compound 26],,0 to 49,,,,,80 to 100,0 to 49,80 to 100,80 to 100,80 to 100,,,
CC(Nc1ncnc2scc(Cl)c12)c1ccc(OC(F)(F)F)cc1 (stereo not drawn) [Compound 82],,0 to 49,,,,,80 to 100,0 to 49,,80 to 100,0 to 49,,,
CC(Nc1ncnc2scc(Cl)c12)c1cccnc1Cl (stereo not drawn) [Compound 80],,50 to 79,,,,,80 to 100,0 to 49,80 to 100,80 to 100,0 to 49,,,
COc1ncc(C(C)Nc2ncnc3scc(Cl)c23)s1 (stereo not drawn) [Compound 72],,0 to 49,,,,,80 to 100,0 to 49,80 to 100,80 to 100,0 to 49,,,
CC(Nc1ncnc2scc(Cl)c12)c1ccc(N2CCOCC2)cc1 (stereo not drawn) [Compound 7a],,50 to 79,,,,,80 to 100,80 to 100,80 to 100,80 to 100,0 to 49,,,
